According to ChEMBL document CHEMBL1201862, “PubChem BioAssay data set” (2004):
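Cells were grown in 96-well plates and exposed to each compound for 48 hours at five concentrations; endpoints were interpolated linearly between bracketing concentrations, or set to the highest concentration if not reached. GI50 = concentration required for 50% inhibition of growth.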 Active and inactive are the calls of the source. Rule as the data show it: active = GI50 up to about 1.1 µM and inactive = higher.

Tests used:
Experiment in all cases: inhibition of tumour cell growth, NCI panel, 48 h
CAKI-1 = tested on: CAKI-1
NCI-H23 = tested on: NCI-H23
M14 = tested on: M14
786-0 = tested on: 786-0
NCI/ADR-RES = tested on: NCI/ADR-RES
EKVX = tested on: EKVX
SF-539 = tested on: SF-539
HOP-62 = tested on: HOP-62
HOP-92 = tested on: HOP-92
KM12 = tested on: KM12
UO-31 = tested on: UO-31
MOLT-4 = tested on: MOLT-4
HCT-116 = tested on: HCT-116
SK-MEL-5 = tested on: SK-MEL-5
DU-145 = tested on: DU-145
SNB-75 = tested on: SNB-75
HCC 2998 = tested on: HCC 2998
NCI-H522 = tested on: NCI-H522
SNB-19 = tested on: SNB-19
UACC-62 = tested on: UACC-62

Measured: GI50

C=CC(C)(C)n1cc(C2=C3OC(=O)C(c4cn(C(C)(C)C=C)c5ccccc45)=C3OC2=O)c2ccccc21
inactive: CAKI-1 > 100 µM | NCI-H23 > 100 µM | M14 > 100 µM | 786-0 > 100 µM | NCI/ADR-RES > 100 µM | EKVX > 100 µM | SF-539 > 100 µM | HOP-62 > 100 µM | HOP-92 > 100 µM | KM12 > 100 µM | UO-31 > 100 µM | MOLT-4 > 100 µM | HCT-116 > 100 µM | SK-MEL-5 > 100 µM | DU-145 > 100 µM | SNB-75 > 100 µM | HCC 2998 > 100 µM | NCI-H522 > 100 µM | SNB-19 > 100 µM

CCCCc1ccc(Nc2nc(S)c3[nH]cnc3n2)cc1
inactive: CAKI-1 34.5 µM | NCI-H23 18.7 µM | UACC-62 18.5 µM | M14 24.2 µM | 786-0 33.2 µM | NCI/ADR-RES 13.4 µM | EKVX > 10 µM | SF-539 20.3 µM | HOP-92 32.4 µM | KM12 11.4 µM | UO-31 28.1 µM | MOLT-4 1.43 µM | HCT-116 25.5 µM | SK-MEL-5 12.5 µM | DU-145 35.5 µM | HCC 2998 25.5 µM | NCI-H522 10.9 µM | SNB-19 22.8 µM

CCOC(=O)c1cc(C2(OC)CCN(Cc3ccccc3)C2=O)c(-c2cc(C)no2)[nH]1 (stereo unspecified)
inactive: CAKI-1 > 100 µM | NCI-H23 > 100 µM | UACC-62 > 100 µM | M14 > 100 µM | 786-0 > 100 µM | NCI/ADR-RES > 100 µM | EKVX 93.1 µM | HOP-62 > 100 µM | HOP-92 90.6 µM | KM12 > 100 µM | UO-31 > 100 µM | MOLT-4 > 100 µM | HCT-116 > 100 µM | SK-MEL-5 97.1 µM | DU-145 > 100 µM | SNB-75 > 100 µM | HCC 2998 > 100 µM | NCI-H522 > 100 µM | SNB-19 > 100 µM

CO[C@@H]1C[C@H]2[C@@H]3CC[C@H]([C@@H](C)CO)[C@@]3(C)CC[C@@H]2[C@@]2(C)CC[C@H]3C[C@]312
inactive: CAKI-1 89.7 µM | NCI-H23 40.7 µM | M14 23.3 µM | 786-0 42.1 µM | NCI/ADR-RES 24.9 µM | EKVX 27.2 µM | SF-539 43.1 µM | HOP-62 46.8 µM | HOP-92 18.9 µM | KM12 19 µM | UO-31 39.8 µM | MOLT-4 31.1 µM | HCT-116 34.4 µM | SK-MEL-5 16.7 µM | DU-145 85.5 µM | SNB-75 74.3 µM | HCC 2998 33.1 µM | NCI-H522 19.7 µM | SNB-19 53.6 µM

CCCCNC(=S)Nc1nc(C(=O)NNC(=O)c2ccccc2)cs1
inactive: CAKI-1 20.9 µM | NCI-H23 > 10 µM | UACC-62 17.6 µM | M14 14.9 µM | 786-0 16.7 µM | NCI/ADR-RES 16.9 µM | EKVX 12.8 µM | HOP-62 18 µM | HOP-92 40.2 µM | KM12 15.2 µM | UO-31 14.1 µM | MOLT-4 20.5 µM | HCT-116 13.1 µM | SK-MEL-5 10.8 µM | DU-145 19.6 µM | SNB-75 32.6 µM | HCC 2998 13.7 µM | NCI-H522 19.3 µM

CCOC(=O)c1ccc(-c2ccc(Cl)cc2)[nH]1
inactive: NCI-H23 > 10 µM | UACC-62 > 10 µM | M14 > 10 µM | 786-0 > 10 µM | NCI/ADR-RES > 10 µM | EKVX 2.28 µM | SF-539 > 10 µM | HOP-92 > 10 µM | KM12 > 10 µM | UO-31 > 10 µM | MOLT-4 > 10 µM | HCT-116 > 10 µM | SK-MEL-5 > 10 µM | DU-145 > 10 µM | SNB-75 > 10 µM | HCC 2998 > 10 µM | NCI-H522 > 10 µM | SNB-19 > 10 µM

COc1cc(/C=C2\N=C(c3ccccc3)N(c3ccc4c(c3)Sc3cc(N5C(=O)/C(=C/c6cc(OC)c(OC)c(OC)c6)N=C5c5ccccc5)ccc3N4)C2=O)cc(OC)c1OC
inactive: CAKI-1 18.5 µM | NCI-H23 19.3 µM | UACC-62 16.9 µM | M14 31.6 µM | 786-0 20.9 µM | NCI/ADR-RES 31 µM | EKVX 22.8 µM | HOP-62 25.5 µM | HOP-92 18.8 µM | KM12 > 100 µM | UO-31 31.3 µM | MOLT-4 37.2 µM | HCT-116 42 µM | SK-MEL-5 16.5 µM | DU-145 54.3 µM | SNB-75 24.7 µM | HCC 2998 21.2 µM | NCI-H522 17.1 µM | SNB-19 21.2 µM

Cc1cccc2c1Oc1cc(Cl)ccc1C2NC(=O)CCN1CCN(CCO)CC1 (stereo unspecified)
inactive: NCI-H23 23.1 µM | UACC-62 5.66 µM | M14 15.5 µM | 786-0 13.6 µM | NCI/ADR-RES 15.8 µM | EKVX 20.8 µM | SF-539 13.1 µM | HOP-62 17.2 µM | HOP-92 10.7 µM | KM12 3.55 µM | UO-31 12.8 µM | MOLT-4 14.4 µM | HCT-116 18.6 µM | SK-MEL-5 14 µM | DU-145 27.2 µM | SNB-75 4.61 µM | HCC 2998 28.6 µM | NCI-H522 11.1 µM | SNB-19 22 µM

C=C(C)C1Cc2cc(C(C)=O)ccc2O1 (stereo unspecified)
inactive: CAKI-1 > 100 µM | NCI-H23 > 100 µM | UACC-62 > 100 µM | M14 > 100 µM | 786-0 > 100 µM | NCI/ADR-RES > 100 µM | EKVX > 100 µM | SF-539 > 100 µM | HOP-92 > 100 µM | KM12 > 100 µM | UO-31 > 100 µM | MOLT-4 > 100 µM | HCT-116 > 100 µM | SK-MEL-5 > 100 µM | DU-145 > 100 µM | SNB-75 > 100 µM | HCC 2998 > 100 µM | NCI-H522 > 100 µM | SNB-19 > 100 µM

CCOC(=O)c1nc2cc(C(F)(F)F)ccc2nc1Oc1ccc(C(=O)OC)cc1
inactive: CAKI-1 > 100 µM | UACC-62 > 100 µM | M14 64.3 µM | 786-0 > 100 µM | NCI/ADR-RES > 100 µM | EKVX > 100 µM | SF-539 > 100 µM | HOP-92 > 100 µM | KM12 > 100 µM | UO-31 > 100 µM | MOLT-4 > 100 µM | HCT-116 > 100 µM | SK-MEL-5 > 100 µM | DU-145 > 100 µM | SNB-75 > 100 µM | HCC 2998 > 100 µM | NCI-H522 69.2 µM | SNB-19 > 100 µM
